Experimental data published in US9676771B2, “Compounds for inhibiting drug-resistant strains of HIV-1 integrase” (priority 2013, dated 2017).
Like-named read-outs stand apart in the source and are kept apart here.

Legend:
[1] = system: HIV-1 constructs containing mutant IN N155H; experiment: microbe, parasite or virus in culture; type: cell-based; conditions: for EC50: Human immunodeficiency virus 1
Procedure, shortened: (§1)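 Single-round infectivity assay using luciferase-reporter pNLNgoMIVR−ΔEnv.LUC virus carrying site-directed integrase mutants, produced in 293 cells. Activity normalized to infectivity without compound; EC50 from regression fit.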

[2] = system: HIV-1 constructs containing mutant IN G140S-Q148H; experiment: microbe, parasite or virus in culture; type: cell-based; conditions: for EC50: Human immunodeficiency virus 1
Procedure, shortened: as §1

[3] = system: HIV-1 constructs containing mutant IN Y143R; experiment: microbe, parasite or virus in culture; type: cell-based; conditions: for EC50: Human immunodeficiency virus 1
Procedure, shortened: as §1

[4] = in vitro; type: cell-based, human; conditions: human, 50% reduction in the level of ATP in HOS cells
Procedure, shortened: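 Cells exposed to compounds over a concentration range for 48 hrs at 37° C. Viability read as cellular ATP by luciferase (ATPlite) luminescence after lysis, normalised to untreated cells; CC50 derived by regression fit.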

[5] = system: HIV-1 constructs containing mutant IN G118R; experiment: microbe, parasite or virus in culture; type: cell-based; conditions: for EC50: Human immunodeficiency virus 1
Method: Single-Round HIV-1 Infectivity Assay.
Human embryonyl kidney cell culture cell line 293 was acquired from the American type Culture Collection (ATCC).
[…]. […] The virus-containing supernatants were then harvested, clarified by low-speed centrifugation, filtrated, and diluted for preparation in infection assays. […] After compound incorporation and activation in the cell, 100 μL of virus-stock diluted to achieve a maximum luciferase signal between 0.2 and 1.5 RLUs was added to each well and further incubated at 37° C. for 48 hrs. […] Activity was normalized to infectivity in the absence of target compounds. KaleidaGraph (Synergy Software, Reading, Pa.) was used to perform regression analysis on the data. EC50 values were determined from the fit model.
pNLNgoMIVR^−ΔEnv.LUC has been described previously (Zhao et al. 2008). The integrase codon reading frame was removed from pNLNgoMIVR^−ΔEnv LUC (between KpnI and SalI sites) and placed between the KpnI and SalI sites of pBluescript II KS+. Using that construct as the wild-type template, we prepared the following HIV-1 Integrase-resistant mutants via the QuikChange II XL (Stratagene, La Jolla, Calif.) site-directed mutagenesis protocol: H51Y, T66I, E92Q, G118R, Y143R, Q148H, Q148K, N155H, R263K, G140S+Q148H, G140A+Q148K, E138K+Q148K, and H51Y+R263K. The following sense with cognate antisense (not shown) oligonucleotides (Integrated DNA Technologies, Coralville, Iowa) were used in the mutagenesis: H51Y, 5′-[…]-3; T66I, 5′-[…]-3′; E92Q, 5′-[…]-3′; G118R, 5′-[…]-3′; E138K, 5′-[…]-3; G140A, 5′-[…]-3; G140S, 5′-[…]-3′; Y143R, 5′-[…]-3′; Q148H, 5′-[…]-3′; Q148K, 5′-[…]-3; N155H, 5′-[…]-3′; R263K 5′-[…]-3′. The double mutation G140S+Q148H was constructed by using the previously generated Q148H mutant and the appropriate oligonucleotide for the 2nd mutation, G140S. The double mutation G140A+Q148K was made by using the Q148K mutant and the appropriate oligonucleotide for the 2nd mutation, G140A. The double mutation E138K+Q148K was made by using the Q148K mutant and the appropriate oligonucleotide for the 2nd mutation, E138K. The double mutation H51Y+R263K was constructed by using the previously generated H51Y mutant and the appropriate oligonucleotides for the 2nd mutation, R263K. The DNA sequence of each construct was verified independently by DNA sequence determination. The mutant integrase coding sequences from pBluescript II KS+ were then subcloned into pNLNgoMIVR^−ΔEnv LUC (between the KpnI and SalI sites) to produce the full-length mutant HIV-1 Integrase constructs. These DNA sequences were additionally checked independently by DNA sequence determination.

[6] = Table 3, read-out: EC50 (nM, IN Mutants) N155H
[7] = Table 3, G140S-Q148H double mutant, read-out: EC50 (nM, IN Mutants) SH
[8] = Table 3, read-out: EC50 (nM, IN Mutants) Y143R
[9] = Table 6, read-out: EC50 (nM, IN Mutants) G118R
[10] = Table 8, read-out: EC50 (nM, IN mutants) N155H
[11] = Table 8, read-out: EC50 (nM, IN mutants) G140S/Q148H
[12] = Table 8, read-out: EC50 (nM, IN mutants) Y143R
[13] = Table 8, read-out: EC50 (nM, IN mutants) G118R

SMILES | EC50 [1, 6] [nM] | EC50 [2, 7] [nM] | EC50 [3, 8] [nM] | CC50 ([4]; Table 3) [nM] | CC50 ([4]; Table 6) [nM] | EC50 [5, 9] [nM] | EC50 [1, 10] [nM] | EC50 [2, 11] [nM] | EC50 [3, 12] [nM] | CC50 ([4]; Table 8) [nM] | EC50 [5, 13] [nM] | Integrase Mutants N155H, fold-change in EC50 relative to WT [1] [x] | Integrase Mutants SH (G140S-Q148H), fold-change in EC50 relative to WT [2] [x] | Integrase Mutants Y143R, fold-change in EC50 relative to WT [3] [x] | CC50 ([4]; Table 2) [nM] | Integrase Mutants G118R, fold-change in EC50 relative to WT [5] [x]
CC(=O)OCCNc1c(C(=O)NCc2ccc(F)cc2F)c(=O)n(O)c2ncccc12 [XZ402, 2-((3-((2,4-difluorobenzyl)carbamoyl)-1-hydroxy-2-oxo-1,2-dihydro-1,8-naphthyridin-4-yl)amino)ethyl acetate] | 3.1 ± 0.3 | 35.1 ± 13.6 | 4.8 ± 2.9 | > 250000 | > 250000 | 43.5 ± 11.2 |  |  |  |  |  |  |  |  |  | 
Nc1c(C(=O)NCc2ccc(F)cc2F)c(=O)n(O)c2ncc(CCCCCCO)cc12 [XZ426, 4-Amino-N-(2,4-difluorobenzyl)-1-hydroxy-6-(6-hydroxyhexyl)-2-oxo-1,2-dihydro-1,8-naphthyridine-3-carboxamide] |  |  |  |  |  |  | 2.7 | 9.4 | 2.1 | > 250000 | 6.4 |  |  |  |  | 
COC(=O)CNc1c(C(=O)NCc2ccc(F)cc2F)c(=O)n(O)c2ncccc12 [XZ379, Methyl 2-((3-((2,4-difluorobenzyl)carbamoyl)-1-hydroxy-2-oxo-1,2-dihydro-1,8-naphthyridin-4-yl)amino)acetate] | 19 ± 6.9 | 35.5 ± 15.9 | 4.6 ± 2.2 | > 250000 | > 250000 | 41.3 ± 18 |  |  |  |  |  |  |  |  |  | 
O=C(NCc1ccc(F)cc1F)c1c(O)c2cccnc2n(O)c1=O [XZ351, N-(2,4-difluorobenzyl)-1,4-dihydroxy-2-oxo-1,2-dihydro-1,8-naphthyridine-3-carboxamide] | 30.5 ± 7.76 | 308 ± 125 | 11.3 ± 1.93 | 137000 ± 20100 | 137000 ± 20100 | 107 ± 40 |  |  |  |  |  | 5 | 50 | 2 | 137000 | 6
COC(=O)CCc1cnc2c(c1)c(N)c(C(=O)NCc1ccc(F)cc1F)c(=O)n2O [XZ434, Methyl 3-(5-amino-6-((2,4-difluorobenzyl)carbamoyl)-8-hydroxy-7-oxo-7,8-dihydro-1,8-naphthyridin-3-yl)propanoate] |  |  |  |  |  |  | 2.3 | 5.3 | 0.67 | > 250000 | 4.8 |  |  |  |  | 
O=C(NCc1ccc(F)cc1F)c1c(O)c2c(CO)ccnc2n(O)c1=O [XZ440, N-(2,4-Difluorobenzyl)-1,4-dihydroxy-5-(hydroxymethyl)-2-oxo-1,2-dihydro-1,8-naphthyridine-3-carboxamide] |  |  |  |  |  |  | 14.9 | 14.7 | 2.6 | > 250000 | 23 |  |  |  |  | 
Nc1c(C(=O)NCc2ccc(F)cc2F)c(=O)n(O)c2ncc(CCCCCO)cc12 [XZ419, 4-Amino-N-(2,4-difluorobenzyl)-1-hydroxy-6-(5-hydroxypentyl)-2-oxo-1,2-dihydro-1,8-naphthyridine-3-carboxamide] |  |  |  |  |  |  | 2.4 | 6.9 | 3 | > 250000 | 5.3 |  |  |  |  | 
Nc1c(C(=O)NCc2ccc(F)cc2F)c(=O)n(O)c2ncc(CCCCCCCCO)cc12 [XZ433, 4-Amino-N-(2,4-difluorobenzyl)-1-hydroxy-6-(8-hydroxyoctyl)-2-oxo-1,2-dihydro-1,8-naphthyridine-3-carboxamide] |  |  |  |  |  |  | 6.5 | 7.7 | 3.2 | > 250000 | 11.1 |  |  |  |  | 
COC(=O)CCc1cnc2c(c1)c(NCCO)c(C(=O)NCc1ccc(F)cc1F)c(=O)n2O [XZ438, Methyl 3-(6-((2,4-difluorobenzyl)carbamoyl)-8-hydroxy-5-((2-hydroxyethyl)amino)-7-oxo-7,8-dihydro-1,8-naphthyridin-3-yl)propanoate] |  |  |  |  |  |  | 3.9 | 15.9 | 3.8 | > 250000 | 4.8 |  |  |  |  | 
CC(=O)OCCCc1cnc2c(c1)c(N)c(C(=O)NCc1ccc(F)cc1F)c(=O)n2O [XZ424, 3-(5-Amino-6-((2,4-difluorobenzyl)carbamoyl)-8-hydroxy-7-oxo-7,8-dihydro-1,8-naphthyridin-3-yl)propyl acetate] |  |  |  |  |  |  | 5.4 | 13 | 2.93 | > 250000 | 5.9 |  |  |  |  | 
C[C@@H]1CCO[C@H]2Cn3cc(C(=O)NCc4ccc(F)cc4F)c(=O)c(O)c3C(=O)N12 [DTG, dolutegravir, reference compound] |  |  |  |  |  |  | 3.6 | 5.8 | 4.3 | > 250000 | 13 ± 5 |  |  |  |  | 
O=C(NCc1ccc(F)cc1F)c1c(NCCO)c2cc(CCCCCO)cnc2n(O)c1=O [XZ437, N-(2,4-Difluorobenzyl)-1-hydroxy-4-((2-hydroxyethyl)amino)-6-(5-hydroxypentyl)-2-oxo-1,2-dihydro-1,8-naphthyridine-3-carboxamide] |  |  |  |  |  |  | 15 | 15.5 | 11.6 | > 250000 | 23.9 |  |  |  |  | 
Nc1c(C(=O)NCc2ccc(F)cc2F)c(=O)n(O)c2ncc(CCCO)cc12 [XZ423, 4-Amino-N-(2,4-difluorobenzyl)-1-hydroxy-6-(3-hydroxypropyl)-2-oxo-1,2-dihydro-1,8-naphthyridine-3-carboxamide] |  |  |  |  |  |  | 8.5 | 13.4 | 2.8 | > 250000 | 10 |  |  |  |  | 
